Laboratory results: patent US7999069B2, “EphB receptor-binding peptides” (Sanford-Burnham Medical Research Institute, priority 2005, dated 2011)
No end group written: not given here.

Key:
EphB1 [1] = target: T1, EphB1 (Homo sapiens, UniProt P54762); assay: Ephrin-B1 Fc-induced EphB1 tyrosine phosphorylation in human aortic endothelial cells; assay type: cell-based; details: concentrations up to 200 μM
T1 construct: endogenous EphB1 tyrosine phosphorylation; endogenous in cells; host or cells: human aortic endothelial cells
T1 sequence (P54762 18-984): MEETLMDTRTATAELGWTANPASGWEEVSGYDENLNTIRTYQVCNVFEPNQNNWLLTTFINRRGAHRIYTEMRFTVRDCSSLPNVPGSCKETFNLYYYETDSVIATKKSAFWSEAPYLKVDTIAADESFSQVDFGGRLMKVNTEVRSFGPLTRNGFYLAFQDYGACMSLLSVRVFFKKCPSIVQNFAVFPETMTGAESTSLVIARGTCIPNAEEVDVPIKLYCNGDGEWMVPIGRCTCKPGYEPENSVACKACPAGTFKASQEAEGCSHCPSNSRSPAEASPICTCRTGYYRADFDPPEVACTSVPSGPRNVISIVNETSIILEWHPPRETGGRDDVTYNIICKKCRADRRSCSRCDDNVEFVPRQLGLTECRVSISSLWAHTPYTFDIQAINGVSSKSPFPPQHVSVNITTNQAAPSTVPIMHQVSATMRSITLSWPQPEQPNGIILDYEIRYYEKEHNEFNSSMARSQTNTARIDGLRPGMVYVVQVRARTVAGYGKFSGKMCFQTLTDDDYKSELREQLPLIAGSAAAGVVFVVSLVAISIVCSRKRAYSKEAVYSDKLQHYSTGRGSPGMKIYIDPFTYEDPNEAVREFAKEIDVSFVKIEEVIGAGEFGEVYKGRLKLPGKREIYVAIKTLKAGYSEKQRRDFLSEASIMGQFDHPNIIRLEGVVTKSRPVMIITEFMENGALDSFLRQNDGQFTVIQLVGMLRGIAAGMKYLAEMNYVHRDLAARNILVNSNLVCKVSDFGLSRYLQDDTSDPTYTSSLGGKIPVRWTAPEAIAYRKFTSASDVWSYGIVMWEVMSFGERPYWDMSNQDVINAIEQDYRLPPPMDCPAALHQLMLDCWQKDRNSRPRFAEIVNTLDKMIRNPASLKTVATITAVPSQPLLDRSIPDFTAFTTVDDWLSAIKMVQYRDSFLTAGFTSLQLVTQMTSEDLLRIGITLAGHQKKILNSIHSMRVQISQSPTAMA

EphB1 [2] = target: T2, EphB1 (Homo sapiens, UniProt P54762); assay: Inhibition of ephrin-B2 AP binding to immobilized EphB1 ectodomain
T2 construct: panned on the ectodomains of EphB1, EphB2, or EphB4 fused to human Fc
T2 sequence (P54762 18-540 limits assumed): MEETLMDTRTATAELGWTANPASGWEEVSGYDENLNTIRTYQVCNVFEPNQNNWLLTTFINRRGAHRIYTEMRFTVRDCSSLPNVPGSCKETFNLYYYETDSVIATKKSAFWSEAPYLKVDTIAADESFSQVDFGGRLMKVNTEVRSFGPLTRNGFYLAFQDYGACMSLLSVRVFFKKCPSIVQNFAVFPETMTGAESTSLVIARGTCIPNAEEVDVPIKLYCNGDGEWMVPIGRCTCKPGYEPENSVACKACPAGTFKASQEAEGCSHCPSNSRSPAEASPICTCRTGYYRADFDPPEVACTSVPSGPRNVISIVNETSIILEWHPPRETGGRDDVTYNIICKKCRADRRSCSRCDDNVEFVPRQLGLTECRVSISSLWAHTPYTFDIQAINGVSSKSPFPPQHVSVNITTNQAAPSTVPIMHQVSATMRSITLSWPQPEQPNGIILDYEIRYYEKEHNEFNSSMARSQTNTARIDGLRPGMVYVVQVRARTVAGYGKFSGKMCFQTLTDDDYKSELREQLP
Description: Peptides that bind to the same receptor region as the ephrins would be expected to inhibit Eph receptor-ephrin association, if they interact with sufficient affinity. A number of synthetic peptides were tested for their ability to inhibit binding of alkaline phosphatase-tagged ephrin-B2 (ephrin-B2-AP) to EphB receptors (FIG. 3). Most of the peptides were synthesized with a biotin tag and immobilized on streptavidin plates to verify their ability to capture the EphB ectodomains used for their isolation.
Ephrin-B2 AP binding to the indicated immobilized EphB receptor ectodomains was measured in the presence of the indicated peptides and detected by measuring alkaline phosphatase activity. […]. […] Wells coated with the different EphB ectodomains were incubated with ephrin-B2 AP and 50 μM of the indicated peptides. Ephrin-B2 AP binding in the presence of peptide was normalized to binding in the absence of peptide. All peptides were biotinylated except for FSPQ and EWYM. […] Therefore, IPWT was not used for further experiments. […]
The GP motif aligns with the GP motif of TNYL and the RAW motif aligns precisely next to the last amino acid of TNYL. […] After several washes, the amount of ephrin-B2-AP bound was quantified using p-nitrophenylphosphate as a substrate. […]

Eph receptor Fc proteins = assay: Immobilized biotinylated peptides capturing Eph receptor Fc proteins on streptavidin plates; assay type: binding; details: A- and B-class Eph receptor Fc proteins
Description: To measure the specificity of peptide binding to Eph receptors, biotinylated peptides were immobilized on streptavidin-coated plates at 10 μM (Pierce Biotechnology, Rockford, Ill.) and incubated for 1 hr with different Eph ectodomain Fc fusion proteins at 2.5 μg/ml in binding buffer. Bound receptor was detected using an anti-Fc antibody coupled to alkaline phosphatase (Promega) with p-nitrophenylphosphate as substrate (Pierce). The background that was subtracted from the measurements was determined by omitting the Eph ectodomain.
Biotinylated peptides were immobilized on streptavidin-coated plates and used to capture Eph receptor Fc proteins. Bound receptor was detected using anti-Fc antibody coupled to alkaline phosphatase and was normalized to the value in the well with highest receptor binding.

EphB receptors = assay: Ephrin-B2 AP binding to different EphB ectodomains in presence of peptide (selectivity); details: 50 μM peptide
Description: Ephrin-B2 AP binding to the indicated immobilized EphB receptor ectodomains was measured in the presence of the indicated peptides and detected by measuring alkaline phosphatase activity. […] Wells coated with the different EphB ectodomains were incubated with ephrin-B2 AP and 50 μM of the indicated peptides. Ephrin-B2 AP binding in the presence of peptide was normalized to binding in the absence of peptide. All peptides were biotinylated except for FSPQ and EWYM. […] The EWYM, TWO, and FSPQ peptides were not synthesized with a biotin tag and therefore were tested directly for inhibition of ephrin-B2 binding.
Ephrin-B2 AP was co-incubated for 1 hr with different peptide concentrations in Ni-NTA wells coated with 1 μg/ml Eph receptor Fc. After several washes, the amount of ephrin-B2-AP bound was quantified using p-nitrophenylphosphate as a substrate. Alkaline phosphatase activity from wells without EphB Fc was subtracted as background. […] In these experiments, the two peptides are not biotinylated. […] Ephrin-B2-AP binding in the presence of peptide was normalized to binding in the absence of peptide in (A) and (B).

Sequence: EWLSPNLAPSVR [SEQ ID NO 1]
- Inhibition of endogenous EphB1 tyrosine phosphorylation (EphB1 [1]): did not inhibit endogenous EphB1 tyrosine phosphorylation
- Inhibition of ephrin-B2 AP binding to EphB1 (in words) (EphB1 [2]): inhibited ephrin binding to EphB1
- Eph receptor binding selectivity of immobilized biotinylated peptide (Eph receptor Fc proteins): bound selectively to EphB1
- Selectivity of antagonism of ephrin-B2 AP binding across EphB ectodomains (EphB receptors): selective
